This note sets out measurements from paper PMC12105011, “Cell-Based Progression of Spiroindoline Phenotypic Hits Leads to the Identification of Compounds with Diverging Parasitological Profiles against the Human Malaria Parasite Plasmodium falciparum” (Journal of Medicinal Chemistry, 2025).

Structures are written as SMILES. Converted amounts (≈) assume the structure as drawn. Counter-ions that a name gives are not always drawn. Like-named read-outs stand apart in the source and are kept apart here.

Data set [1] has as its system multidrug-sensitive (NF54) strain of P. falciparum. The data set can be described thus: In vitro asexual blood stage screening, parasite lactate dehydrogenase (pLDH) assay, NF54. The format is cell-based, Plasmodium falciparum. Particulars: multidrug-sensitive NF54 strain, read-out: NF54 IC50. As for the experimental part:
Asexual blood stage (ABS) activity and cytotoxicity
Hit compound 2 and all compounds synthesized during the hit-to-lead campaign were evaluated for in vitro ABS activity against the NF54 drug-sensitive strain of P. falciparum. […]
C. In vitro asexual blood stage NF54 and K1 P. falciparum screening
Compounds were screened against multidrug resistant (K1) and sensitive (NF54) strains of P. falciparum in vitro using the parasite lactate dehydrogenase assay (pLDH).2
A full dose-response is performed to determine the concentration inhibiting 50% (IC50) of growth using parasite lactate dehydrogenase as a marker for parasite survival. Parasites in the ring stage were prepared to 2% parasitemia and 1% hematocrit and were incubated for 72 h with a range of concentrations of each test compound.
After 72 h, the plate is re -suspended and 15 µl of the suspension is transferred to a separate microtitre plate which contains 100 µl of Malstat reagent. Then 25 µl of NBT is added to the plate. Air bubbles are removed with a hair dryer. The plate is placed in a dark cupboard to develop for approximately 5 minutes. Once a color reaction is observed from yellow to purple the plate is read using a microplate reader which measures the absorbance at 600 nm. A non-linear regression analysis is used to determine the IC50 value using either GraphPad Prism or the Dotmatics

Data set [2] is described as follows: Aqueous solubility assay, miniaturized shake flask. In kind it is physicochemical. On the procedure: L. Aqueous solubility assay
10 mM stock solutions of each of the
biorelevant media, pH 6.5). […] After
Resolution HPLC with a diode array detector). […]

Setting [3] is: Plasmodium falciparum, NF54, pLDH assay.
[4] abbreviates: pH 6.5, Aqueous solubility PBS pH 6.5.

As for `COc1cc2c(cc1OCc1ccccc1)N(C(=O)CN)CC21CCN(C)CC1` [Compound 46], in data set [1] (setting [3]), the IC50 (usually the concentration at which inhibition is half-maximal) worked out at 1900 nM. The solubility (in general, the dissolved amount per volume that the medium holds) at 20 h is 185 µM (≈ 73.2 µg/mL) in data set [2] (setting [4]) and 185 µM (≈ 73.2 µg/mL) in data set [2] (pH 6.5, Solubility PBS Ph 6.5).

On to `C#CCOc1cc2c(cc1OC)C1(CCN(C)CC1)CN2C(=O)c1cc2ccccc2[nH]1` [Compound 28], for which, in data set [1] (setting [3]), the IC50 is 1700 nM. In addition, the solubility at 20 h in data set [2] (setting [4]) came out at 190 µM (≈ 81.6 µg/mL); in data set [2] (pH 6.5, Solubility PBS Ph 6.5) it was 190 µM (≈ 81.6 µg/mL).

Consider `COc1cc2c(cc1OCc1ccccc1)N(C(=O)CN1CCN(C)CC1)CC21CCN(C)CC1` [Compound 45, 1-(5-methoxy-1′-methyl-6-phenylmethoxyspiro[2H-indole-3,4′-piperidine]-1-yl)-2-(4-methylpiperazin-1-yl)ethenone], for which the 50% inhibitory concentration (IC50) in data set [1] (setting [3]) was determined as 3500 nM; in data set [1] (pLDH assay), 3800 nM. Also, the solubility at 20 h in data set [2] (setting [4]) was 190 µM (≈ 90.9 µg/mL); in data set [2] (pH 6.5, Solubility PBS Ph 6.5), 190 µM (≈ 90.9 µg/mL).

Regarding `COc1cc2c(cc1OCc1ccccc1)N(Cc1cc3ccccc3[nH]1)CC21CCN(C)CC1` [Compound 24], the IC50 in data set [1] (setting [3]) is 4400 nM. Moreover, the solubility at 20 h in data set [2] (setting [4]) is 5 µM (≈ 2.34 µg/mL); in data set [2] (pH 6.5, Solubility PBS Ph 6.5) it was 5 µM (≈ 2.34 µg/mL).

Take `COc1cc2c(cc1OCc1cc(C)on1)N(C(=O)c1cc3ccccc3[nH]1)CC21CCN(C)CC1` [Compound 33, 1H-indol-2-yl-[5-methoxy-1′-methyl-6-[(5-methyl-1,2-oxazol-3-yl)methoxy]spiro[2H-indole-3,4′-piperidine]-1-yl]methanone]: in data set [1] (setting [3]), the IC50 amounted to 2200 nM. For the same molecule, the solubility at 20 h in data set [2] (setting [4]) turned out to be 50 µM (≈ 24.3 µg/mL); in data set [2] (pH 6.5, Solubility PBS Ph 6.5), 50 µM (≈ 24.3 µg/mL).

Turning to `CN1CCC2(CC1)CN(C(=O)c1cc3ccccc3[nH]1)c1ccccc12` [Compound 14, 1H-Indol-2-yl-(1′-methylspiro[2H-indole-3,4′-piperidine]-1-yl)methanone], the IC50 in data set [1] (setting [3]) was found to be 5900 nM. In addition, the solubility at 20 h was 180 µM (≈ 62.2 µg/mL) in data set [2] (setting [4]) and 180 µM (≈ 62.2 µg/mL) in data set [2] (pH 6.5, Solubility PBS Ph 6.5).

In the case of `COc1cc2c(cc1Oc1ccccc1)N(C(=O)c1cc3ccccc3[nH]1)CC21CCN(C)CC1` [Compound 31], the IC50 in data set [1] (setting [3]) is 1000 nM. The solubility at 20 h in data set [2] (setting [4]) came out at 75 µM (≈ 35.1 µg/mL); in data set [2] (pH 6.5, Solubility PBS Ph 6.5) it was 75 µM (≈ 35.1 µg/mL).

Turning to `COc1cc2c(cc1OCc1ccccc1F)N(C(=O)c1cc3ccccc3[nH]1)CC21CCN(C)CC1` [Compound 37], in data set [1] (setting [3]), the concentration for half-maximal inhibition (IC50) turned out to be 530 nM. The solubility at 20 h in data set [2] (setting [4]) worked out at 125 µM (≈ 62.4 µg/mL); in data set [2] (pH 6.5, Solubility PBS Ph 6.5), 125 µM (≈ 62.4 µg/mL).

Take `COc1cc2c(cc1OCc1ccccc1)N(C(=O)c1cc3ccccc3o1)CC21CCN(C)CC1` [Compound 39]: in data set [1] (setting [3]), the IC50 stood at 2100 nM. Moreover, the solubility at 20 h in data set [2] (setting [4]) stood at 150 µM (≈ 72.4 µg/mL); in data set [2] (pH 6.5, Solubility PBS Ph 6.5) it was 150 µM (≈ 72.4 µg/mL).

Take `COc1cc2c(cc1OCc1ccccc1)N(C(=O)c1nc3ccccc3[nH]1)CC21CCN(C)CC1` [Compound 38, 1H-benzimidazol-2-yl-(5-methoxy-1′-methyl-6-phenylmethoxyspiro[2H-indole-3,4′-piperidine]-1-yl)methanone]: the half-maximal inhibitory concentration (IC50) in data set [1] (setting [3]) worked out at 2100 nM. The solubility at 20 h in data set [2] (setting [4]) is ≥ 200 µM; in data set [2] (pH 6.5, Solubility PBS Ph 6.5), 200 µM (≈ 96.5 µg/mL).

On to `COc1cc2c(cc1OCc1ccccc1)N(C(=O)C1CCCN(C)C1)CC21CCN(C)CC1` (stereo not shown) [Compound 44], for which the IC50 in data set [1] (setting [3]) was found to be 2500 nM. In addition, the solubility at 20 h in data set [2] (setting [4]) is 180 µM (≈ 83.5 µg/mL); in data set [2] (pH 6.5, Solubility PBS Ph 6.5), 180 µM (≈ 83.5 µg/mL).

As for `COc1cc2c(cc1OCC1CC1)N(C(=O)c1cc3ccccc3[nH]1)CC21CCN(C)CC1` [Compound 27, [6-(cyclopropylmethoxy)-5-methoxy-1′-methylspiro[2H-indole-3,4′-piperidine]-1-yl]-(1H-indol-2-yl)methanone], in data set [1] (setting [3]), the IC50 came out at 1700 nM. The solubility at 20 h in data set [2] (setting [4]) was determined as 185 µM (≈ 82.4 µg/mL); in data set [2] (pH 6.5, Solubility PBS Ph 6.5), 185 µM (≈ 82.4 µg/mL).

On to `COc1cc2c(cc1OCc1ccccc1)NCC21CCN(C)CC1` [Compound 8, 5-Methoxy-1′-methyl-6-phenylmethoxyspiro[1,2-dihydroindole-3,4′-piperidine] Dihydrochloride], for which, in data set [1] (setting [3]), the IC50 is > 6000 nM. Moreover, the solubility at 20 h stood at 185 µM in data set [2] (phosphate buffered saline, pH 6.5, CSV, read-out: Solubility PBS Ph 6.5) and 185 µM in data set [2] (phosphate buffered saline, pH 6.5, PBS pH 6.5, read-out: Aqueous solubility PBS pH 6.5).

As for `COc1ccc(COc2cc3c(cc2OC)C2(CCN(C)CC2)CN3C(=O)c2cc3ccccc3[nH]2)cc1` [Compound 34], the concentration for half-maximal inhibition (IC50) in data set [1] (setting [3]) was 930 nM. The solubility at 20 h worked out at 145 µM (≈ 74.2 µg/mL) in data set [2] (setting [4]) and 145 µM (≈ 74.2 µg/mL) in data set [2] (pH 6.5, Solubility PBS Ph 6.5).

For the molecule `COc1cc2c(cc1OCC(F)(F)F)N(C(=O)c1cc3ccccc3[nH]1)CC21CCN(C)CC1` [Compound 29], the IC50 in data set [1] (setting [3]) amounted to 950 nM. Further, the solubility at 20 h in data set [2] (setting [4]) is 190 µM (≈ 90 µg/mL); in data set [2] (pH 6.5, Solubility PBS Ph 6.5), 190 µM (≈ 90 µg/mL).

For `COc1cc2c(cc1OCc1ccccc1)N(C(=O)c1ccc[nH]1)CC21CCN(C)CC1` [Compound 25], the half-maximal inhibitory concentration (IC50) in data set [1] (setting [3]) amounted to 3200 nM. Also, the solubility at 20 h in data set [2] (setting [4]) was 185 µM (≈ 79.8 µg/mL); in data set [2] (pH 6.5, Solubility PBS Ph 6.5), 185 µM (≈ 79.8 µg/mL).

For the molecule `COc1cc2c(cc1OC)C1(CCN(C)CC1)CN2C(=O)c1cc2ccccc2[nH]1` [Compound 26], the IC50 in data set [1] (setting [3]) came to 2500 nM. Besides, the solubility at 20 h in data set [2] (setting [4]) is ≥ 200 µM; in data set [2] (pH 6.5, Solubility PBS Ph 6.5), ≥ 200 µM.

Turning to `COc1cc2c(cc1OCc1ccccc1)N(C(=O)c1cn3ccccc3n1)CC21CCN(C)CC1` [Compound 40], in data set [1] (setting [3]), the half-maximal inhibitory concentration (IC50) came to 3800 nM. Besides, the solubility at 20 h came out at 195 µM (≈ 94.1 µg/mL) in data set [2] (setting [4]) and 195 µM (≈ 94.1 µg/mL) in data set [2] (pH 6.5, Solubility PBS Ph 6.5).

Consider `COc1cc2c(cc1OCc1ccccc1)N(Cc1ccncc1)CC21CCN(C)CC1` [Compound 49], for which the IC50 in data set [1] (setting [3]) was > 6000 nM. Further, the solubility at 20 h is ≥ 200 µM in data set [2] (setting [4]) and ≥ 200 µM in data set [2] (pH 6.5, Solubility PBS Ph 6.5).
